According to patent US10136645B2, “Antimicrobial composition” (MicroBio Solutions Inc., priority 2015, dated 2018):

Assays:
B. subtilis spore = assay: Spore germination inhibition in TSB with low concentration solution; assay type: cell-based, Bacillus subtilis; conditions: low concentration solution (1:200 dilution); 30° C., 72 hours, visible growth
Method: The spore contaminated media culture was then incubated at 30° C. for 72 hours for detect the germination of the spore by the presence of a visually detectable growth. Three replicates were completed per treatment.

E. coli [1] = assay: Minimal bactericidal time (MBT) at different contact times; assay type: cell-based; conditions: 1000 active ppm H2O2 alone
Method: (§1) The antimicrobial effectiveness of the compositions of the present invention was tested. In this experiment, the test organism was E. coli and the final bacterial concentrations was 10^6 to 10^7 cfu/ml. Inoculum was contacted with either the combinations of LAE/H2O2 or individual, at different active concentration levels for a contact time of 30 seconds or more. The aliquots of this contaminated solution is used for determinate the minimal bactericidal concentration (MBC) for kill bacteria in the aliquots at 30 sec. contact time. Table 1 summarizes the efficacy of each biocide and their blends, and the Synergy index of each combination. In the same condition the minimal bactericidal time (MBT) was also evaluate with a combination of LAE:H2O2 (1:10) at different contact time. The table 2 summarizes the minimal bactericidal time for each biocide and a blend.

[2] = test system: Bacillus subtilis (ATCC#19659) spores; assay: Sporicidal activity, quantitative suspension test EN 13704:2002; assay type: cell-based
Method: The sporicidal activity of a given product is defined by its capacity to reduce at least by 3 log (cfu/ml) the amount of Bacillus subtilis bacterial spores in suspension, in the conditions established in the method.
The test organism in the form of a test suspension was prepared containing endospores from Bacillus subtilis (ATCC#19659). The endospores were specifically prepared from a culture grown on Nutrient agar, to which additional sporulation enhancements were added. Plates were harvested with sterile water and endospores were purified by repeated centrifugations and resuspensions in water. The final wash was in 70% w/w ethanol for 30 minutes, to ensure the death of all vegetative bacteria.

[3] = animal toxicological studies; cited from earlier work
E. coli [4] = assay: Minimal bactericidal concentration (MBC) at 30 sec. contact time; assay type: cell-based; conditions: alone or in blend, 10^6 to 10^7 cfu/ml
Method: as §1

[5] = test system: E. coli on raw chicken piece; assay: Efficacy and residual growth inhibition on inoculated raw chicken pieces; assay type: cell-based
Text: In the following example it is shown the residual effect of a combination of LAE/H2O2 compared with peracetic acid (PAA). The peracetic acid is often used in the food industry to sanitize food (fruit, vegetables, meat and poultry). The peracetic acid has a strong odor, is highly reactive and unstable when diluted and its use is limited to 80 ppm on food in the majority of countries worldwide regulation (e.g. US-FDA regulation 21CFR). For this example a solution of 200 ppm of lauric arginate with 1000 ppm of hydrogen peroxide is prepared and acidified to pH 2.5 using citric acid. The peracetic acid used is provided by Sigma-Aldrich.
Raw chicken pieces of the same size and weight are first soaked in an inoculating solution containing E. coli and incubated 30 minutes at 30° C. to allow the adhesion of bacteria on the surfaces of the sample. All samples are then soaked in a disinfectant solution (LAE/H2O2 or PAA) or a control (water) for a period of 30 seconds followed by a drying period drip for 2 minutes. Three replicates were completed per treatment. After the treatment, the samples were submerged in a neutralizing growth medium (D/E Neutralizing Broth) to analyze the populations of E. coli after the treatment or stored at room temperature in a sterile bags 24 hours before analyzed for populations of E. coli.

OO [Example H2O2, hydrogen peroxide]
Spore germination inhibition activity (B. subtilis spore): No inhibition
MBT (E. coli [1]): >5 min
Average Log 10 cfu/ml reduction after 10 minutes contact time ([2]; high concentration treatment solution (10% H2O2)): >3 Log 10 cfu/ml

CCCCCCCCCCCC(=O)N[C@@H](CCCN=C(N)N)C(=O)OCC [LAE, Lauric arginate ethyl ester]
systemic No Observable Adverse Effect Levels (NOAEL) [3]: 15,000 mg/L
MBC (active ppm) H2O2 (E. coli [4]; H2O2 concentration for complete kill): 5000 active ppm
MBC (active ppm) LAE (E. coli [4]; LAE concentration for complete kill): >350 active ppm
sporicidal activity ([2]; LAE alone, result not shown): no significant difference with the control

CC(=O)OO [PAA, peracetic acid]
Average Log10 cfu/sample 2 min. after treatment ([5]; 30 seconds soak, 2 min drip drying, LAE/H2O2 200/1000 ppm pH 2.5): 0.56 Log10 cfu/sample
Log10 reduction vs control 2 min. after treatment ([5]; 30 seconds soak, LAE/H2O2 200/1000 ppm pH 2.5, PAA 80 ppm): 3.81 Log10
Average Log10 cfu/sample 24 hours after treatment ([5]; stored 24 hours at room temperature, LAE/H2O2 200/1000 ppm, PAA 80 ppm): 2.51 Log10 cfu/sample
